For 32 compounds, IC50 results are on record in patent US10722514B2 (FLX Bio, Inc., priority 2017, dated 2020).

Bounds are passed on as bounds.

This experiment concerns the target T1, recombinant full-length USP7 (Homo sapiens, UniProt Q93009).
T1 construct: A 25 μl reaction volume containing recombinant full-length USP7 (62 pM)
Description: USP7-mediated ubiquitin-rhodamine cleavage assay. The settings on record: recombinant full-length USP7 62 pM; ubiquitin-rhodamine 100 nM; 30-minute incubation with compound, 1 hour reaction at room temperature; read-out: Potency: USP7 IC50. The class given is biochemical. The protocol:
In the case of the USP7 deubiquitylating enzyme, the IC50 of an USP7 inhibiting compound is the concentration of the compound that inhibits 50% of the activity observed in a USP7-mediated ubiquitin-rhodamine cleavage assay.
For the USP7 inhibitors disclosed herein, their potency was measured using the following test method.
A 25 μl reaction volume containing recombinant full-length USP7 (62 pM) in 20 mM HEPES pH 7.3, 150 mM NaCl, 1 mM TCEP, and 125 μg/ml BSA was assembled in wells of 384 well plates. Test compounds were dispensed with a Hewlett Packard D300 digital dispenser (1% final DMSO). Following a 30-minute incubation at room temperature, ubiquitin-rhodamine was added with the D300 to a final concentration of 100 nM and the reaction was allowed to proceed for 1 hour at room temperature protected from light. The reaction was stopped by the addition of 5 μl 1M acetic acid. Rhodamine fluorescence was measured using an Envision plate reader (Perkin Elmer) and IC50 values were determined by non-linear regression using a 4-parameter fit in a Dotmatics (Bishops Stortford, Hertfordshire, England) software package.

T1 sequence (Q93009 whole entry): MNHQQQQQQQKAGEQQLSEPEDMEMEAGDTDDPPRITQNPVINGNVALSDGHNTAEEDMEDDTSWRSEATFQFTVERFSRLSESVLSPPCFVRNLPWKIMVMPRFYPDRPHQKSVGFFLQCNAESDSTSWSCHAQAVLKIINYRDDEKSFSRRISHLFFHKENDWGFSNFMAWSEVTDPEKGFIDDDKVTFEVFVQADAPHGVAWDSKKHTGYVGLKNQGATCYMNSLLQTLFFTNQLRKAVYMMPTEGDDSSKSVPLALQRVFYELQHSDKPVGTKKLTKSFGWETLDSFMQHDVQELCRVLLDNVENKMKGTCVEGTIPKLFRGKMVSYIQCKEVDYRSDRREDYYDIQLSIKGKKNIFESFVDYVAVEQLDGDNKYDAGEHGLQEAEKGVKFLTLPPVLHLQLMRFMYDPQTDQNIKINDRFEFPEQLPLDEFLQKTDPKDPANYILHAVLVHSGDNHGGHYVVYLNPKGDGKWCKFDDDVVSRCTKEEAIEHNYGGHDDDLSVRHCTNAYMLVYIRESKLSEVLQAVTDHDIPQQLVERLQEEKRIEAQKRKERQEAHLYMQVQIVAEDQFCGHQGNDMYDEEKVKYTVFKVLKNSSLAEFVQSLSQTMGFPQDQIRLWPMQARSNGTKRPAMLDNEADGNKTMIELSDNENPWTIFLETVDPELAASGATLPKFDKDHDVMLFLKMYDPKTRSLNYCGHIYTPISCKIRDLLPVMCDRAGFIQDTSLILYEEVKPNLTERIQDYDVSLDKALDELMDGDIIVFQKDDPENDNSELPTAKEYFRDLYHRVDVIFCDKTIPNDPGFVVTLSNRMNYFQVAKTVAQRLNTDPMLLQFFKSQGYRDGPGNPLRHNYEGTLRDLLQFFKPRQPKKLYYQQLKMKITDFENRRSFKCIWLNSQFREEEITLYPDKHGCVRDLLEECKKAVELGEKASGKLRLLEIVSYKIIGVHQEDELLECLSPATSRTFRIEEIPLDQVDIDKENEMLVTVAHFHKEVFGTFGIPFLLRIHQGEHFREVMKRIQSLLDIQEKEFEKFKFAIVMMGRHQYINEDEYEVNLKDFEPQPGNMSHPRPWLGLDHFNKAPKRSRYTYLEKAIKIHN

`Cc1cc(C#N)cc(-c2ccnc3cc(CN4C(=O)CCC4=O)sc23)c1OCC1(C#N)CNC1` [Example 27, 3-((4-Cyano-2-(2-((2,5-dioxopyrrolidin-1-yl)methyl)thieno[3,2-b]pyridin-7-yl)-6-methylphenoxy)methyl)azetidine-3-carbonitrile]: the IC50 was less than 1 µM. Consider `Cc1cc2nccc(-c3cc(Cl)ccc3OCC3CNC3)c2s1` [Example 28, 7-(2-(Azetidin-3-ylmethoxy)-5-chlorophenyl)-2-methylthieno[3,2-b]pyridine], for which the IC50 fell in the range of 1 to 10 µM. The result for `OCc1cc2nccc(-c3cc(Cl)ccc3OCC3CNC3)c2s1` [Example 29, (7-(2-(Azetidin-3-ylmethoxy)-5-chlorophenyl)thieno[3,2-b]pyridin-2-yl)methanol] reads 1 to 10 µM; that for `Cc1cc(Cl)cc(-c2ccnc3cc(CO)sc23)c1OCCC1CNC1` [Example 30, (7-(2-(2-(Azetidin-3-yl)ethoxy)-5-chloro-3-methylphenyl)thieno[3,2-b]pyridin-2-yl)methanol], greater than 30 µM; that for `CCC(O)c1cc2nccc(-c3cc(C#N)cc(C)c3OCC3(C)CNC3)c2s1` (centres unmarked) [Example 31, 3-(2-(1-Hydroxypropyl)thieno[3,2-b]pyridin-7-yl)-5-methyl-4-((3-methylazetidin-3-yl)methoxy)benzonitrile], 1 to 10 µM.

Regarding `Cc1cc(Cl)cc(-c2ccnc3cc(CO)sc23)c1OC(C)C1CNC1` (centres unmarked) [Example 32, (7-(2-(1-(Azetidin-3-yl)ethoxy)-5-chloro-3-methylphenyl)thieno[3,2-b]pyridin-2-yl)methanol], the IC50 lay within 10 to 30 µM. Regarding `CCC(O)c1cc2nccc(-c3cc(Cl)cc(C)c3OCC3(C)CNC3)c2s1` (centres unmarked) [Example 33, 1-(7-(5-Chloro-3-methyl-2-((3-methylazetidin-3-yl)methoxy)phenyl)thieno[3,2-b]pyridin-2-yl)propan-1-ol], the IC50 was 1 to 10 µM. For the compound `CCC(O)c1cc2nccc(-c3cc(Cl)cc(C)c3OC(C)C3CNC3)c2s1` (centres unmarked) [Example 34, 1-(7-(2-(1-(Azetidin-3-yl)ethoxy)-5-chloro-3-methylphenyl)thieno[3,2-b]pyridin-2-yl)propan-1-ol], the IC50 lay in the range of 10 to 30 µM. Consider `CCC(O)c1cc2nccc(-c3cc(Cl)cc(C)c3OCC3(F)CNC3)c2s1` (centres unmarked) [Example 35, 1-(7-(5-Chloro-2-((3-fluoroazetidin-3-yl)methoxy)-3-methylphenyl)thieno[3,2-b]pyridin-2-yl)propan-1-ol], for which the IC50 lay in the range of 1 to 10 µM. In the case of `CCC(O)c1cc2nccc(-c3cc(C#N)cc(C)c3OCC3(F)CNC3)c2s1` (centres unmarked) [Example 36, 4-((3-Fluoroazetidin-3-yl)methoxy)-3-(2-(1-hydroxypropyl)thieno[3,2-b]pyridin-7-yl)-5-methylbenzonitrile], the IC50 fell in the range of 1 to 10 µM. As to `Cc1cc2nccc(-c3cc(Cl)cc(C)c3OCC3CNC3)c2s1` [Example 37, 7-(2-(Azetidin-3-ylmethoxy)-5-chloro-3-methylphenyl)-2-methylthieno[3,2-b]pyridine], the 50% inhibitory concentration (IC50) lay within 1 to 10 µM. The result for `CCC(O)c1cc2nccc(-c3cc(Cl)cc(C)c3OCC3(CC)CNC3)c2s1` (centres unmarked) [Example 38, 1-(7-(5-Chloro-2-((3-ethylazetidin-3-yl)methoxy)-3-methylphenyl)thieno[3,2-b]pyridin-2-yl)propan-1-ol] reads less than 1 µM; that for `CCC(O)c1cc2nccc(-c3cc(Cl)cc(C)c3OCC3(C#N)CNC3)c2s1` (centres unmarked) [Example 39, 3-((4-Chloro-2-(2-(1-hydroxypropyl)thieno[3,2-b]pyridin-7-yl)-6-methylphenoxy)methyl)azetidine-3-carbonitrile], less than 1 µM. `Cc1cc(Cl)cc(-c2ccnc3cc(CO)sc23)c1OC1COC2(CNC2)C1` (centres unmarked) [Example 40, (7-(2-((5-Oxa-2-azaspiro[3.4]octan-7-yl)oxy)-5-chloro-3-methylphenyl)thieno[3,2-b]pyridin-2-yl)methanol]: the IC50 is 10 to 30 µM. The result for `Cc1cc(Cl)cc(-c2ccnc3cc(CO)sc23)c1OCC1(C#N)CNC1` [Example 41, 3-((4-Chloro-2-(2-(hydroxymethyl)thieno[3,2-b]pyridin-7-yl)-6-methylphenoxy)methyl)azetidine-3-carbonitrile] reads less than 1 µM; that for `CC(Oc1ccc(Cl)cc1-c1ccnc2cc(CO)sc12)C1CNC1` (centres unmarked) [Example 42, (7-(2-(1-(Azetidin-3-yl)ethoxy)-5-chlorophenyl)thieno[3,2-b]pyridin-2-yl)methanol], 10 to 30 µM; that for `Cc1cc(C#N)cc(-c2ccnc3cc(CO)sc23)c1OCC1(C)CNC1` [Example 43, 3-(2-(Hydroxymethyl)thieno[3,2-b]pyridin-7-yl)-5-methyl-4-((3-methylazetidin-3-yl)methoxy)benzonitrile], 1 to 10 µM. With `Cc1cc(C#N)cc(-c2ccnc3ccsc23)c1OCC1(C)CNC1` [Example 44, 3-Methyl-4-((3-methylazetidin-3-yl)methoxy)-5-(thieno[3,2-b]pyridin-7-yl)benzonitrile], the IC50 is 1 to 10 µM.

With `Cc1cc(Cl)cc(-c2ccnc3ccsc23)c1OCC1(C)CNC1` [Example 45, 7-(5-Chloro-3-methyl-2-((3-methylazetidin-3-yl)methoxy)phenyl)thieno[3,2-b]pyridine], the IC50 was less than 1 µM.

Regarding `Cc1cc(C#N)cc(-c2ccnc3cc(CN4C(=O)CCC4=O)sc23)c1OCC1(C)CNC1` [Example 46, 3-(2-((2,5-Dioxopyrrolidin-1-yl)methyl)thieno[3,2-b]pyridin-7-yl)-5-methyl-4-((3-methylazetidin-3-yl)methoxy)benzonitrile], the IC50 is less than 1 µM.

In the case of `CCC(O)c1cc2ncnc(-c3cc(Cl)cc(C)c3OCC3(C)CNC3)c2s1` (centres unmarked) [Example 47, 1-(4-(5-chloro-3-methyl-2-((3-methylazetidin-3-yl)methoxy)phenyl)thieno[3,2-d]pyrimidin-6-yl)propan-1-ol], the IC50 lay within 1 to 10 µM. `Cc1cc(Cl)cc(-c2ccnc3cc(CO)sc23)c1OC1CC2(CNC2)C1` [Example 48, (7-(2-((2-Azaspiro[3.3]heptan-6-yl)oxy)-5-chloro-3-methylphenyl)thieno[3,2-b]pyridin-2-yl)methanol]: the IC50 is 10 to 30 µM. Regarding `Cc1cc(Cl)cc(-c2ccnc3cc(CO)sc23)c1OC1CCC12CNC2` (centres unmarked) [Example 49, (7-(2-((2-Azaspiro[3.3]heptan-5-yl)oxy)-5-chloro-3-methylphenyl)thieno[3,2-b]pyridin-2-yl)methanol], the half-maximal inhibitory concentration (IC50) fell in the range of 1 to 10 µM. With `CCC(O)c1cc2nccc(-c3cc(Cl)cc(C)c3O[C@H]3CCNC3)c2s1` (stereo partly drawn) [Example 50, 1-(7-(5-Chloro-3-methyl-2-(((S)-pyrrolidin-3-yl)oxy)phenyl)thieno[3,2-b]pyridin-2-yl)propan-1-ol], the IC50 lay in the range of 1 to 10 µM. Take `CCC(O)c1cc2nccc(-c3cc(Cl)cc(C)c3O[C@@H]3CCNC3)c2s1` (stereo partly drawn) [Example 51, 1-(7-(5-Chloro-3-methyl-2-(((R)-pyrrolidin-3-yl)oxy)phenyl)thieno[3,2-b]pyridin-2-yl)propan-1-ol]: the IC50 is 1 to 10 µM. On to `Cc1cc(Cl)cc(-c2ccnc3cc(CN4C(=O)CCC4=O)sc23)c1OCC12CNCC1C2` (centres unmarked) [Example 52, 1-((7-(2-((3-Azabicyclo[3.1.0]hexan-1-yl)methoxy)-5-chloro-3-methylphenyl)thieno[3,2-b]pyridin-2-yl)methyl)pyrrolidine-2,5-dione], for which the IC50 was less than 1 µM. With `CN[C@@H]1CC[C@@H](Oc2c(C)cc(Cl)cc2-c2ccnc3cc(CN4C(=O)CCC4=O)sc23)C1` [Example 53, 1-((7-(5-Chloro-3-methyl-2-(((1R,3R)-3-(methylamino)cyclopentyl)oxy)phenyl)thieno[3,2-b]pyridin-2-yl)methyl)pyrrolidine-2,5-dione], the IC50 was less than 1 µM.

`O=C1CCC(=O)N1Cc1cc2nccc(-c3cc(C(F)(F)F)cc(Cl)c3O[C@@H]3CNC[C@@H]3F)c2s1` [Example 54, 1-((7-(3-Chloro-2-(((3R,4S)-4-fluoropyrrolidin-3-yl)oxy)-5-(trifluoromethyl)phenyl)thieno[3,2-b]pyridin-2-yl)methyl)pyrrolidine-2,5-dione]: the IC50 is less than 1 µM.

On to `Cc1cc(Cl)cc(-c2ccnc3cc(CO)sc23)c1O[C@@H]1CNC[C@H]1C` [Example 55, (7-(5-Chloro-3-methyl-2-(((3S,4R)-4-methylpyrrolidin-3-yl)oxy)phenyl)thieno[3,2-b]pyridin-2-yl)methanol], for which the concentration for half-maximal inhibition (IC50) is 10 to 30 µM. With `Cc1cc(Cl)cc(-c2ccnc3cc(CO)sc23)c1O[C@@H]1CNC[C@@H]1C` [Example 56, (7-(5-Chloro-3-methyl-2-(((3S,4S)-4-methylpyrrolidin-3-yl)oxy)phenyl)thieno[3,2-b]pyridin-2-yl)methanol], the IC50 was in the range of 1 to 10 µM.

With `Cc1cc(Cl)cc(-c2ccnc3cc(CO)sc23)c1O[C@@H]1CNC[C@@H]1F` [Example 57, (7-(5-Chloro-2-(((3R,4S)-4-fluoropyrrolidin-3-yl)oxy)-3-methylphenyl)thieno[3,2-b]pyridin-2-yl)methanol], the half-inhibitory concentration (IC50) was in the range of 1 to 10 µM. The result for `Cc1cc(Cl)cc(-c2ccnc3cc(CO)sc23)c1OC[C@H]1CCCN1` [Example 58, (R)-(7-(5-Chloro-3-methyl-2-(pyrrolidin-2-ylmethoxy)phenyl)thieno[3,2-b]pyridin-2-yl)methanol] reads 10 to 30 µM.

The term IC50 denotes the point on the concentration scale where inhibition reaches its midpoint.
